According to patent US9938328B2, “Use of PEDF-derived polypeptides for treating alopecia and/or hair depigmentation” (MacKay Memorial Hospital, priority 2012, dated 2018):
Entries after “also recorded” stand apart in the source; their conditions may differ. Read-outs that look alike come from different tables or passages of the source.

Key:
[1] = system: male mouse vibrissal hair follicles; experiment: Organ culture of mouse vibrissal hair follicles challenged with DHT (TUNEL, BrdU, histology); assay type: cell-based; settings: for BrdU Labeling Index (%) / TUNNEL Labeling Index (%): peptide for 16 hours, then 100 nM DHT for further 48 hours, hair matrix keratinocytes; for TUNEL-positive keratinocytes versus vehicle or 18-mer (in words): vibrissae with 100 nM DHT
Method: (§1) The vibrissae follicle cryosections were washed three times in PBS. Formalin-fixed, paraffin-embedded skin specimens were deparaffinized in xylene and rehydrated in a graded series of ethanol. Sections were then stained with TdT-mediated dUTP nick-end labeling (TUNEL)-based kit (Roche Molecular Biochemicals, Indianapolis, Ind.) following the manufacturer's instructions. The cell number was monitored by counterstaining with Hoechst 33258 (blue). The nuclei were calculated in ten randomly selected fields of the three different chambers by a Zeiss epifluorescence microscope (400×, 10 fields/sample). Pictures were recorded on Zeiss software.
(§2) After fixing with 4% paraformaldehyde, cells were exposed to cold methanol for 2 minutes, and then treated with 1 N HCl at room temperature for 1 hour before performing immunofluorescence. BrdU-labeled DNA was detected by polyclonal anti-BrdU antibody and rhodamine-conjugated donkey anti-rabbit IgG.
(§3) For animal study, BrdU was reconstituted in DMSO as stock (80 mM). 10 μl of BrdU mixed with 90 μl of PBS was intraperitoneally injected into mouse at 16 hours prior to euthanasia. Formalin-fixed, paraffin-embedded skin specimens were deparaffinized in xylene and rehydrated in a graded series of ethanol before performing immunohistochemistry. The vibrissae follicle cryosections were washed three times in PBS and then exposed to 1 N HCl at room temperature for 1 hour for subsequent immunohistochemistry.
Mouse vibrissae follicles were cultured as follows. Briefly, whisker pads were cut off from the face of mouse and transferred to a Petri dish containing PBS and 1% antibiotic mixture. Each vibrissae follicle that was in anagen was isolated from the whisker pads and cultured in DMEM supplemented with insulin (10 μg/ml), hydrocortisone (10 ng/ml, Sigma-Aldrich), 1% penicillin/streptomycin antibiotic mixture and L-glutamine (2 mM), using 24-well culture plates (3 vibrissae follicles per well) and incubated at 37° C., in 5% CO2. Ten to fifteen HFs were studied in each experimental group, and were repeated three times. DHT and PEDF peptide dissolved in DMSO were added to the HF culture supplemented with insulin and hydrocortisone (the final concentration of DMSO was less than 0.05%).
Each PEDF peptide (29-mer, 24-mer, 20-mer, or Mo 20-mer) was added to organ culture of male mouse vibrissal hair follicles (HFs) for 16 hours, and then 100 nM DHT was added for further 48 hours.
Immunodetections of TUNEL- and BrdU-positive cells in cryosections were used for assessing apoptosis and proliferation activity in the HF epithelium, respectively. The labeling index (%) of TUNEL- and BrdU-positive cells was computed as the number of labeled cells divided by the total number of cells with nuclei.

[2] = system: C57BL/6 mice; experiment: Hair regrowth in DHT-injected depilated mice, topical peptide gel for 14 days; assay type: in vivo, mouse; settings: for Numbers of Hair Bulbs/mm deep subcutis / Hair Growth Score: DHT 30 mg/kg s.c. twice per week, gel 25 μM once per day for 14 days; for hair regrowth after depilation (FIG. 7, in words) / increase in total number of hair bulbs versus vehicle or 18-mer: DHT-injected mice; for hair regrowth after depilation (FIG. 7, in words): daily application, day-18 post-depilation; for Hair Growth Score: scale 0 (0%) to 5 (80-100% of shaved area dark)
Method: (§4) Before use, the stock containing the 44-mer was prepared into a working dilution, which is then mixed with an antibiotic ointment containing 5 mg/g neomycin sulfate and 12.5 mg/g bacitracin to obtain an antibiotic ointment containing 25 μM of 44-mer. As to other PEDF peptides, 5 μl of 5 mM PEDF peptide stock was gradually dissolved in ethyl alcohol (30% w/w in distilled water), and then 1-oleoyl-rac-glycerol (1% w/w, a skin penetration enhancer) and light mineral oil (1% w/w) were gradually added. The solution was finally gelled by adding hydroxypropyl methylcellulose (5% w/w) to a final volume of 1 ml. A DMSO vehicle corresponding to the peptide formulation was prepared for the purpose of in vivo comparison. FITC-29-mer was also dissolved in the same formulation for applied on top of skin to determining the follicular distribution of FITC-29-mer.
(§5) For topical treatments, 350 mg ointment or gel containing 25 μM of PEDF peptide was spread gently over dorsal skin per mouse.
To evaluate the effect of PEDF peptide on restarting hair growth, C57BL/6 mice were depilated as described in Example 3.2. At day-11 post-depilation, mice (six to ten mice per experimental condition) were injected subcutaneously (30 mg/kg body weight) in the shaved dorsal area with DHT solution (1.5 mg of DHT mixed within 200 μl of olive oil), and then the mice were injected with DHT twice per week during the course of the study. After the first DHT injection, 350 mg vehicle gel or gel containing 25 μM PEDF peptide (29-mer, 24-mer, 20-mer, or 18-mer) was topically applied to the back skin of mice once per day for 14 days. Changes in hair coat were recorded by photographing with a digital camera (FIG. 7), and the percentage of the shaved area that became dark (re-grown hair) was measured. The scores of hair regrowth after DHT injection was evaluated using the following scale: 0, 0% (no hair growth); 1, <20%; 2, 20-39%; 3, 40-59%; 4, 60-79%; 5, 80-100%. Numbers of hair bulbs per unit length (1 mm) of deep subcutis were counted as described above.

[3] = system: male C57BL/6 mice; experiment: DHT-induced catagen development in depilated mice, topical peptide gel (histomorphometry, TUNEL, BrdU); assay type: in vivo, mouse; settings: day-15 post-depilation; for hair cycle phase of hair follicles (histology, in words): 4 days after the DHT injection; for BrdU Labeling Index (%) in HB: hair bulb; for Phase (%) Anagen-Catagen I / Phase (%) Catagen II-III / Phase (%) Catagen IV-V / Phase (%) Catagen VI-VIII: percentage of hair follicles
Method: as §4, §5
The murine back skin was harvested parallel to the vertebral line to obtain longitudinal sections through the hair follicles. Dorsal skin was fixed in 4% paraformaldehyde and embedded in paraffin blocks to obtain longitudinal section. Tissues were sliced into 5 μm sections. Before use, fixed samples were de-paraffinized in xylene and rehydrated in a graded series of ethanol. General histology was performed using H&E dye. Digital photomicrographs (Zeiss epifluorescence microscope; Jena, Germany) were taken from representative areas at a fixed magnification of 100×.
For analysis of HF morphogenesis, animals were euthanized at day 15 post-depilation. The percentage of hair follicles in different stages of morphogenesis was assessed on the accepted basis of murine HF morphological criteria as described by Müuller-Röver et al. (Journal of Investigative Dermatology (2001) 117, 3-15). At least 24 longitudinally cut HF sections obtained from six to ten DHT-treated animals, were analyzed.
as §1, §3
For in vivo analysis, a 5α-dihydrotestosterone (DHT) animal model was employed. Six-week-old male C57BL/6 mice (weighing 15-20 g) in the telogen stage of the hair cycle were depilated using a melted wax/rosin mixture (1:1) under general anesthesia, and the anagen stage was induced. DHT was dissolved in DMSO to give a 50 mg/ml stock solution. On day-11 post-depilation, mice (six to ten mice per experimental condition) were injected subcutaneously in the shaved dorsal area with DHT solution (30 mg/kg body weight; 1.5 mg of DHT mixed within 200 μl of olive oil per mouse). After the DHT injection, 350 mg vehicle gel or gel containing 25 μM of PEDF peptide (29-mer, 24-mer, 20-mer, or 18-mer) was topically applied to the back skin of mice once per day for 3 days. […]

[4] = system: human epidermal keratinocytes (HaCaT); experiment: BrdU incorporation in HaCaT keratinocytes in response to TGF-β1 and PEDF-derived peptide; assay type: cell-based
Method: as §2
An immortalized human keratinocyte cell line (HaCaT) was cultured at 37° C. in 10% FBS-DMEM. Treatments with PEDF peptide and recombinant human TGFβ1 (R&D Systems) were performed on cells seeded in 5% FBS-DMEM.
It is known that DHT would induce the expression of transforming growth factor-β1 (TGF-β1) in dermal papilla cells (DPCs), and TGF-β1 is a catagen inducer that suppresses hair growth and follicular keratinocyte growth in subjects with androgenic alopecia. To further confirm that PEDF-derived peptide is able to protect keratinocytes from DHT-mediated growth suppression, the cell division of human epidermal keratinocytes (HaCaT) in response to TGF-β1 and PEDF-derived peptide were assessed by BrdU incorporation. The labeling index (%) of BrdU-positive cells was computed as the number of labeled cells divided by the total number of cells with nuclei.
However, in the TGF-β1+20-mer treatment group, TGF-β1 was unable to suppress the proliferative activity of HaCaT, when cells were pretreated with 20-mer for 16 hours.

[5] = DHT 30 mg/kg s.c., gel 25 μM once per day for 3 days

EQRTESIIHRALYYDLIS [18-mer, 18-mer peptide without the SLGA residues]
BrdU Labeling Index (%) [1]: 8.4 ± 1.21% | TUNNEL Labeling Index (%) [1]: 26.2 ± 4.21% | Numbers of Hair Bulbs/mm deep subcutis [2]: 4.8 ± 0.86 /mm | hair regrowth after depilation (FIG. 7, in words) [2]: remarkable retardation of hair regrowth | Hair Growth Score [2]: 1.88 ± 0.40 | hair cycle phase of hair follicles (histology, in words) [3]: entered catagen; also recorded: in the middle and late catagen phase | TUNNEL-positive cell/HF in HM and ORS [3, 5]: 7.6 ± 1.5 cell/HF | BrdU Labeling Index (%) in HB [3, 5]: 25.6 ± 2.52% | Phase (%) Anagen-Catagen I [3, 5]: 9.7 ± 1.8% | Phase (%) Catagen II-III [3, 5]: 13.85 ± 1.75% | Phase (%) Catagen IV-V [3, 5]: 53.05 ± 0.85% | Phase (%) Catagen VI-VIII [3, 5]: 23.4 ± 4.4%

SLGAEQRTESIIHRALYYDLISSPDIHGT [29-mer, corresponds to residues 93-121 of human PEDF]
BrdU Labeling Index (%) [1]: 22.6 ± 2.42 % | TUNNEL Labeling Index (%) [1]: 5.8 ± 2.12 % | TUNEL-positive keratinocytes versus vehicle or 18-mer (in words) [1]: much less TUNEL-positive keratinocytes | Numbers of Hair Bulbs/mm deep subcutis [2]: 7.4 ± 1.03 /mm | increase in total number of hair bulbs versus vehicle or 18-mer [2]: 1.6 fold | hair regrowth after depilation (FIG. 7, in words) [2]: amelioration of the retardation of hair regrowth | Hair Growth Score [2]: 3.75 ± 0.37 | hair cycle phase of hair follicles (histology, in words) [3]: mostly in the anagen phase; also recorded: significantly higher percentage of hair follicles was found in the anagen phase, and the early catagen phase | BrdU Labeling Index (%) in HB [3, 5]: 44.89 ± 2.95 % | Phase (%) Anagen-Catagen I [3, 5]: 39.85 ± 1.35 % | Phase (%) Catagen II-III [3, 5]: 37.8 ± 1.3% | Phase (%) Catagen IV-V [3, 5]: 19.15 ± 2.05% | Phase (%) Catagen VI-VIII [3, 5]: 3.2 ± 0.6 %

SLGAEHRTESVIHRALYYDL [Mo 20-mer, synthetic peptide derived from mouse PEDF]
BrdU Labeling Index (%) [1]: 24.6 ± 2.56 % | TUNNEL Labeling Index (%) [1]: 7.3 ± 1.75 % | TUNEL-positive keratinocytes versus vehicle or 18-mer (in words) [1]: much less TUNEL-positive keratinocytes

transforming growth factor-β1 [TGF-β1, reference compound]
BrdU Labeling Index (%) [4]: 9.9 ± 2.23 %

SLGAEQRTESIIHRALYYDL [20-mer, corresponds to residues 93-112 of human PEDF]
BrdU Labeling Index (%) [1]: 23.6 ± 4.56 % | TUNNEL Labeling Index (%) [1]: 6.8 ± 1.68 % | hair matrix histology (H&E, FIG. 5) ([1]; peptide pretreatment, then 100 nM DHT): regularly aligned keratinocytes and much less abnormal melanin particles | TUNEL-positive keratinocytes versus vehicle or 18-mer (in words) [1]: much less TUNEL-positive keratinocytes | BrdU Labeling Index (%) [4]: 23.3 ± 2.46% | BrdU Labeling Index (%) ([4]; TGF-β1 + 20-mer: pretreated with 20-mer for 16 hours, then TGF-β1 4 ng/ml, 24 hours): 32.3 ± 3.70 % | Numbers of Hair Bulbs/mm deep subcutis [2]: 6.8 ± 1.24 /mm | increase in total number of hair bulbs versus vehicle or 18-mer [2]: 1.6 fold | hair regrowth after depilation (FIG. 7, in words) [2]: amelioration of the retardation of hair regrowth | Hair Growth Score [2]: 4.25 ± 0.25 | hair cycle phase of hair follicles (histology, in words) [3]: mostly in the anagen phase; also recorded: significantly higher percentage of hair follicles was found in the anagen phase, and the early catagen phase | BrdU Labeling Index (%) in HB [3, 5]: 45.2 ± 2.47 % | Phase (%) Anagen-Catagen I [3, 5]: 39.0 ± 2.8 % | Phase (%) Catagen II-III [3, 5]: 33.95 ± 1.25% | Phase (%) Catagen IV-V [3, 5]: 23.6 ± 1.8% | Phase (%) Catagen VI-VIII [3, 5]: 3.45 ± 0.25 %

SLGAEQRTESIIHRALYYDLISSP [24-mer, corresponds to residues 93-116 of human PEDF]
BrdU Labeling Index (%) [1]: 22.0 ± 3.69 % | TUNNEL Labeling Index (%) [1]: 6.5 ± 2.43 % | TUNEL-positive keratinocytes versus vehicle or 18-mer (in words) [1]: much less TUNEL-positive keratinocytes | Numbers of Hair Bulbs/mm deep subcutis [2]: 7.2 ± 1.07 /mm | increase in total number of hair bulbs versus vehicle or 18-mer [2]: 1.6 fold | hair regrowth after depilation (FIG. 7, in words) [2]: amelioration of the retardation of hair regrowth | Hair Growth Score [2]: 4.13 ± 0.40 | hair cycle phase of hair follicles (histology, in words) [3]: significantly higher percentage of hair follicles was found in the anagen phase, and the early catagen phase | BrdU Labeling Index (%) in HB [3, 5]: 46.9 ± 2.57 %
